Experimental findings from patent US20100168176A1, “NOVEL COMPOUNDS, PHARMACEUTICAL COMPOSITIONS CONTAINING SAME, AND METHODS OF USE FOR SAME” (FASGEN LLC, priority 2006, published 2010) are described below.

The subject of one assay is FAO. Nature of the assay: FAO SC 150 / FAO Max. Particulars: for FAO Max: at the concentration given under E18.
The subject of assay [1] is MCF-7 human breast cancer cells. Kind of assay: [14C]acetate incorporation into total lipids. It counts as cell-based. As to conditions: MCF7. On the procedure: Measurement of [^14 C]acetate Incorporation into Total Lipids and Determination of IC50 of Compounds
This assay measures the incorporation of [^14C]acetate into total lipids and is a measure of fatty acid synthesis pathway activity in vitro. It is utilized to measure inhibition of fatty acid synthesis in vitro.
MCF-7 human breast cancer cells cultured as above, are plated at 5×10^4 cells per well in 24-well plates. Following overnight incubation, the compounds to be tested, solubilized in DMSO, are added at 5, 10, and 20 μg/ml in triplicate, with lower concentrations tested if necessary. DMSO is added to triplicate wells for a vehicle control. C75 is run at 5 and 10 μg/ml in triplicate as positive controls. After 4 hours of incubation, 0.25 μCi of [^14C]acetate (10 μl volume) is added to each well.
After 2 hours of additional incubation, medium is aspirated from the wells and 800 μl of chloroform:methanol (2:1) and 700 μl of 4 mM MgCl2 is added to each well. Contents of each well are transferred to 1.5 Eppendorf tubes, and spun at full-speed for 2 minutes in a high-speed Eppendorf Microcentrifuge 5415D. After removal of the aqueous (upper) layer, an additional 700 μl of chloroform:methanol (2:1) and 500 μl of 4 mM MgCl2 are added to each tube and then centrifuged for 1 minutes as above. The aqueous layer is removed with a Pasteur pipette and discarded. An additional 400 μl of chloroform:methanol (2:1) and 200 μl of 4 mM MgCl2 are added to each tube, then centrifuged and aqueous layer is discarded. The lower (organic) phase is transferred into a scintillation vial and dried at 40° C. under N2 gas. Once dried, 3 ml of scintillant (APB #NBC5104) is added and vials are counted for ^14C. The Beckman Scintillation counter calculates the average cpm values for triplicates.
The IC50 for the compounds is defined as the concentration of drug leading to a 50% reduction in [^14C]acetate incorporation into lipids compared to controls. This is determined by plotting the average cpm for each inhibitor concentration tested, performing linear regression and computing the best-fit line, r^2 values, and 95% confidence intervals. The average cpm values are computed by the Beckman scintillation counter (Model LS6500) for each compound concentration. Computation of linear regression, best-fit line, r^2, and 95% confidence intervals are calculated using Prism Version 3.0 (Graph Pad Software).

Assay [2] has the same test system. Nature of the assay: XTT cytotoxicity assay, MCF-7 (M). It counts as cell-based. Particulars: Homo sapiens, MCF7; (M) or no code; MCF-7, 72 hours. On the procedure:
The XTT assay is a non-radioactive alternative for the [^51Cr] release cytotoxicity assay. XTT is a tetrazolium salt that is reduced to a formazan dye only by metabolically active, viable cells. The reduction of XTT is measured spectrophotometrically as OD490-OD650.
To measure the cytotoxicity of specific compounds against cancer cells, 9×10^3 MCF-7 human breast cancer cells, obtained from the American Type Culture Collection are plated per well in 96 well plates in DMEM medium with 10% fetal bovine serum, insulin, penicillin, and streptomycin. Following overnight culture at 37° C. and 5% CO2, the compounds to be tested, dissolved in DMSO, are added to the wells in 1 μl volume at the following concentrations: 80, 40, 20, 10, 5, 2.5, 1.25, and 0.625 μg/ml in triplicate. Additional concentrations are tested if required. 1 μl of DMSO is added to triplicate wells are the vehicle control. C75 is run at 40, 20, 10, […], 10, and 5 in triplicate as positive controls.
After 72 hours of incubation, cells are incubated for 4 hours with the XTT reagent as per manufacturer's instructions (Cell Proliferation Kit II (XTT) Roche). Plates are read at OD490 and OD650 on a Molecular Devices SpectraMax Plus Spectrophotometer. Three wells containing the XTT reagent without cells serve as the plate blank. XTT data are reported as OD490-OD650. Averages and standard error of the mean are computed using SOFTmax Pro software ([…]).
The IC50 for the compounds is defined as the concentration of drug leading to a 50% reduction in OD400-OD650 compared to controls. The OD400-OD650 are computed by the SOFTmax PRO software (Molecular Devices) for each compound concentration. IC50 is calculated by linear regression, plotting the FAS activity as percent of control versus drug concentrations. Linear regression, best-fit line, r^2, and 95% confidence intervals are determined using Prism Version 3.0 (Graph Pad Software).
Background: Tetrazolium dyes change colour on reduction, which living cells bring about.

For the next assay, the system named is H. Nature of the assay: Crystal violet cell growth assay, H. It counts as cell-based. Particulars: read-out: Cr. Violet (IC50). As to the method:
Crystal Violet Cell Growth Assay
The crystal violet assay measure cell growth but not cytotoxicity. This assay employs crystal violet staining of fixed cells in 96-well plates with subsequent solubilization and measurement of OD490 on a spectrophotometer. The OD490 corresponds to cell growth per unit time measured. Cells are treated with the compounds of interest or vehicle controls and IC50 for each compound is computed.
To measure the cytotoxicity of specific compounds against cancer cells, 5×10^4 MCF-7 human breast cancer cells, obtained from the American Type Culture Collection are plated per well in 24 well plates in DMEM medium with 10% fetal bovine serum, penicillin, and streptomycin. Following overnight culture at 37° C. and 5% CO2, the compounds to be tested, dissolved in DMSO, are added to the wells in 1 μl volume at the following concentrations: 50, 40, 30, 20, and 10 μg/ml in triplicate. Additional concentrations are tested if required. 1 μl of DMSO is added to triplicate wells are the vehicle control. C75 is run at 10, and 5 μg/ml in triplicate as positive controls.
After 72 hours of incubation, cells are stained with 0.5 ml of Crystal Violet stain (0.5% in 25% methanol) in each well. After 10 minutes, wells are rinsed, air dried, and then solubilized with 0.5 ml 10% sodium dodecylsulfate with shaking for 2 hours. Following transfer of 100 μl from each well to a 96-well plate, plates are read at OD490 on a Molecular Devices SpectraMax Plus Spectrophotometer Average OD490 values are computed using SOFTmax Pro Software (Molecular Devices) and IC50 values are determined by linear regression analysis using Prism version 3.02 (Graph Pad Software, San Diego).

Another assay deals with OV. Nature of the assay: XTT cytotoxicity assay, OV. It counts as cell-based.

One may read the IC50 as the concentration that gives 50% inhibition.

Values after ≈ are worked out from the molar mass of the structure shown.

In the case of `CCCCCCCCC1(C)SC(=O)C=C1OCC(=O)NNc1ccc(OC)cc1` (stereo not drawn) [Compound 13, (5-Methyl-5-octyl-2-oxo-thiophen-4-yloxy)-acetic-acid-N′-(4-methoxyphenyl)-hydrazide], in the assay with FAO, the “FAO Max: concentration at which the maximum was seen” value (“FAO Max: concentration” for short) came to 0.098 μg/ml ug/ml. Moreover, in the assay with FAO, the “FAO SC 150” value is “Neg”. For the same molecule, the “FAO Max” value with FAO is 103% at. Also, the IC50 is 21.3 µg/mL (≈ 50.6 µM) in assay [1], 9 µg/mL (≈ 21.4 µM) in assay [2], 12.3 µg/mL (≈ 29.2 µM) in the assay with H and 18 µg/mL (≈ 42.8 µM) with OV.
On to `CCCCCCCCC1(C)SC(=O)C=C1OCC(=O)NNc1ccccc1` (stereo not drawn) [Compound 10, (5-Methyl-5-octyl-2-oxo-thiophen-4-yloxy)-acetic-acid-N′-phenylhydrazide], for which, in the assay on FAO, the “FAO Max: concentration” value is 6.25 µg/mL. In the assay with FAO, the “FAO SC 150” value was “Neg”. Moreover, in the assay on FAO, the “FAO Max” value turned out to be 126% at. Also, the IC50 in assay [1] stood at 7.2 µg/mL (≈ 18.4 µM); in assay [2], 6.9 µg/mL (≈ 17.7 µM); with H, 8.4 µg/mL (≈ 21.5 µM); with OV, 13.2 µg/mL (≈ 33.8 µM).
As to `CCCCCCCCC1(C)SC(=O)C=C1OCC(=O)NNc1cccc(C)c1` (stereo not drawn) [Compound 11, (5-Methyl-5-octyl-2-oxo-thiophen-4-yloxy)-acetic-acid-N′-(3-methylphenyl)-hydrazide], the “FAO Max: concentration” value in the assay on FAO is 1.56 µg/mL. The “FAO SC 150” value with FAO was “Neg”. The “FAO Max” value in the assay on FAO is listed as 116% @. For the same molecule, the IC50 in assay [1] was found to be 12 µg/mL (≈ 29.7 µM); in assay [2], 9 µg/mL (≈ 22.2 µM); in the assay on H, 21.9 µg/mL (≈ 54.1 µM); in the assay with OV, 10.1 µg/mL (≈ 25 µM).
For `CCCCCCCCC1(C)SC(=O)C=C1OCC(=O)NNc1nc2ccccc2s1` (single isomer, unassigned) [Compound 17, (5-Methyl-5-octyl-2-oxo-thiophen-4-yloxy)-acetic-acid-N′-(2-benzothiazole)-hydrazide], the “FAO Max: concentration” value in the assay with FAO was 6.25 µg/mL. Besides, the “FAO SC 150” value in the assay with FAO was 4.9 µg/mL. Also, the “FAO Max” value in the assay on FAO turned out to be 167% @. Besides, the IC50 in assay [1] is over 80 µg/mL; in assay [2], 74 µg/mL (≈ 165 µM); in the assay with H it was 17.8 µg/mL (≈ 39.8 µM); in the assay on OV it was 38.7 µg/mL (≈ 86.5 µM).
Regarding `CCCCCCCCC1(C)SC(=O)C=C1OCC(=O)NNc1ccc(Cl)cc1Cl` (stereo not drawn) [Compound 14, (5-Methyl-5-octyl-2-oxo-thiophen-4-yloxy)-acetic-acid-N′-(2,4-dichlorophenyl)-hydrazide], the “FAO Max: concentration” value in the assay with FAO amounted to 0.098 μg/ml ug/ml. Also, the “FAO SC 150” value in the assay with FAO is given as “Neg”. Further, the “FAO Max” value in the assay on FAO was found to be 100% at. The IC50 worked out at 18.3 µg/mL (≈ 39.8 µM) in assay [1], 6.9 µg/mL (≈ 15 µM) in assay [2], 7.3 µg/mL (≈ 15.9 µM) in the assay on H and 12.8 µg/mL (≈ 27.9 µM) with OV.
For `CCCCCCCCC1(C)SC(=O)C=C1OCC(=O)NNc1ccc(Cl)c(Cl)c1` (stereo not drawn) [Compound 15, (5-Methyl-5-octyl-2-oxo-thiophen-4-yloxy)-acetic-acid-N′-(3,4-dichlorophenyl)-hydrazide], the “FAO Max: concentration” value in the assay on FAO was 0.395 μg/ml ug/ml. In the assay with FAO, the “FAO SC 150” value was “Neg”. Besides, in the assay on FAO, the “FAO Max” value stood at 100% at. Moreover, the IC50 in assay [1] was 13.3 µg/mL (≈ 28.9 µM); in assay [2], 11.4 µg/mL (≈ 24.8 µM); in the assay on H it was 8.5 µg/mL (≈ 18.5 µM); in the assay on OV it was 15.2 µg/mL (≈ 33.1 µM).
